Source: patent publication US20240049994A1, “ONE-TOUCH FINGERTIP SWEAT SENSOR AND PERSONALIZED DATA PROCESSING FOR RELIABLE PREDICTION OF BLOOD BIOMARKER CONCENTRATIONS” (THE REGENTS OF THE UNIVERSITY OF CALIFORNIA, priority 2021, published 2024)

Tests used:
[1] = system: tyrosinase enzyme; experiment: Selectivity of tyrosinase-modified L-Dopa sensor against C-Dopa; assay type: biochemical
Source text: L-Dopa detection is achieved through coupling the tyrosinase enzyme-catalyzed L-Dopa oxidation (catecholase activity) and the subsequent electrochemical reduction of the corresponding quinone product, dopaquinone, at low potentials (FIG. 6A). The formed reaction cycle not only enhances the sensitivity through amplification of the resulting current signal but also prevents electrode fouling by inhibiting the spontaneous polymerization reactions of the unstable quinone molecules. Tyrosinase enzyme is simply immobilized on the surface of screen-printed carbon electrodes, followed by crosslinking with glutaraldehyde to prevent leaching of the enzyme (FIG. 6A). To establish the optimal potential for the L-Dopaquinone reduction, the amperometric signals obtained at various potentials, ranging from −0.1 to −0.4 V (vs. internal pseudo-reference Ag/AgCl), are compared upon addition of 10 μM L-Dopa. […] Thus, optimal potential of −0.3 V is chosen and used for subsequent in-vitro and on-body experiments. […] The reproducibility of the L-Dopa sensor is evaluated by measuring 10 μM L-Dopa concentration on six different electrodes sensors.
The performance of the sensor toward following the L-Dopa pharmacokinetics is characterized on healthy patients following the administration of L-Dopa/C-Dopa (100:25 mg) pills which are common oral medication for PD patients. […]

[2] = Touch-based fingertip sweat L-Dopa monitoring after L-Dopa/C-Dopa pill intake; assay type: in vivo, human; conditions: oral L-Dopa/C-Dopa (100:25 mg) pill
Source text: The disclosed technology can be implemented in some embodiments to provide an individualized therapeutic drug monitoring for PD patients, centered on dynamic non-invasive tracking pharmacokinetic profiles of L-Dopa levels in the secreted sweat upon intake of standard pill formulations. Sweat is a non-invasively retrievable biofluid containing rich information of trace-level, health-related biochemical markers. Wearable sweat sensors have shown enormous potential toward monitoring of physiological heath status (e.g., hydration), disease diagnosis and management (e.g., diabetes and gout), and therapeutic drug monitoring (e.g., pain management). However, the presence of skin as a mechanical barrier prevents an uninterrupted access to this information-rich biofluid, and thus a triggering system (i.e., physical exercise, thermal stimulation, oriontophoresis) is necessary to provide continuous access to sweat sample. […] Taking advantage of the high density of eccrine sweat glands (˜400 glands cm^2) and the consequent generation of high sweat rates, finger touch-based biosensors have recently been reported for the detection of key sweat biomarkers (e.g., glucose, vitamin C, and cortisol). Leveraging such natural thermoregulatory sweat sample, a finger-touch L-Dopa biosensor based on some embodiments of the disclosed technology can continuously monitor the dynamic profile of sweat L-Dopa upon intake of standard anti-Parkinsonian medication including L-Dopa-carbidopa (100:25 mg) (FIG. 5A(a)). […]
To gain further insight into the personalized body responses upon medication intake, the performance of the finger touch biosensor is evaluated on three different individuals while taking the same medication under identically kept conditions (FIG. 7 (a)-(c)). […]

[3] = Pharmacokinetic correlation of fingertip sweat and capillary blood L-Dopa profiles; assay type: in vivo, human; conditions: healthy subjects, after L-Dopa/C-Dopa pill, measured every 10 min
Source text: While the blood plasma is the ‘gold standard’ matrix for therapeutic monitoring of L-Dopa, this analysis method relies on LC-MS centralized instruments. To further confirm the reliability of the developed protocol based on touch-based sweat L-Dopa detection, the feasibility of data validation between sweat and blood samples is investigated. Two subjects performed fingertip sweat sensing in parallel to the electrochemical measurements of the finger pricked capillary blood samples, using the enzymatic L-Dopa sensor. As shown in FIG. 62 (A)-(B), the sweat sensor is able to probe and detect successfully L-Dopa fluctuations in microliter blood samples similar to the fingertip natural sweat sample. Similar temporal profiles are observed for blood and sweat experiments, with ˜10 min lag time. […] Additionally, control experiments are also carried out without pill intake (FIG. 62 (C)) and using non-enzymatic electrode (FIG. 62 (D)). In both control experiments, the current signal remained small and unchanged, which indicates the signal specificity of the fingertip touch-based sweat sensing procedure.

| current relative to L-Dopa ([1]; a quarter of the L-Dopa concentration (4:1 ratio as in the pill)) [%] | overall response relative to L-Dopa ([1]; same concentration as L-Dopa, amperometry at -0.3 V) [%] | time at which L-Dopa current signal starts to increase after pill intake ([2]; healthy subject) [min] | time at which sweat L-Dopa signal decreases back to background level after pill intake ([2]; healthy subject) | time of peak maximum of sweat L-Dopa signal after pill intake ([2]; healthy subjects, measured every 10 min) [min] | lag time between sweat and capillary blood L-Dopa temporal profiles [3] [min] | SMILES |
| --- | --- | --- | --- | --- | --- | --- |
| ~6 | ~20 | – | – | – | – | C[C@@](Cc1ccc(O)c(O)c1)(NN)C(=O)O [C-Dopa, carbidopa] |
| – | – | 10 | one hour | 30 | ~10 | N[C@@H](Cc1ccc(O)c(O)c1)C(=O)O [L-Dopa, Levodopa] |
